Results from the NIST ThermoML archive (doi:10.1016/j.jct.2012.01.022).

Assay: xn = mol fraction of the nth substance listed
Details: 101 kPa, Liquid; for speed of sound: Sing-around technique in a fixed-path interferometer; for mass density: Vibrating tube method; for viscosity: Capillary tube (Ostwald / Ubbelohde) method

NCCN [ethane-1,2-diamine] + CCCCCCCCCCO
Details	mass density [kg/m3]	speed of sound [m/s]	viscosity [mPa·s]
293.15 K, x1 = 0.0424	831.534	1402.1	–
293.15 K, x1 = 0.1063	834.058	1408.9	–
293.15 K, x1 = 0.1512	835.766	1414.8	–
293.15 K, x1 = 0.1995	837.56	1420.8	–
293.15 K, x1 = 0.2511	839.445	1427.1	–
293.15 K, x1 = 0.2957	841.022	1432.6	–
293.15 K, x1 = 0.3961	844.521	1445.5	–
293.15 K, x1 = 0.4929	848.18	1459.7	–
293.15 K, x1 = 0.609	853.458	1481.8	–
293.15 K, x1 = 0.6962	858.67	1504.6	–
293.15 K, x1 = 0.7975	866.833	1541.1	–
293.15 K, x1 = 0.855	872.943	1570.1	–
293.15 K, x1 = 0.9054	879.622	1602.3	–
293.15 K, x1 = 0.9591	888.704	1648.1	–
298.15 K, x1 = 0.0424	828.092	1384.9	10.96
298.15 K, x1 = 0.1063	830.545	1391.6	10.6
298.15 K, x1 = 0.1512	832.202	1397.5	10.36
298.15 K, x1 = 0.1995	833.938	1403.3	9.921
298.15 K, x1 = 0.2511	835.76	1409.5	9.382
298.15 K, x1 = 0.2957	837.289	1414.9	8.821
298.15 K, x1 = 0.3961	840.693	1427.6	7.355
298.15 K, x1 = 0.4929	844.262	1441.5	6.047
298.15 K, x1 = 0.609	849.415	1463.1	4.514
298.15 K, x1 = 0.6962	854.51	1485.4	3.644
298.15 K, x1 = 0.7975	862.525	1521.3	2.699
298.15 K, x1 = 0.855	868.535	1549.7	2.198
298.15 K, x1 = 0.9054	875.128	1581.4	1.874
298.15 K, x1 = 0.9591	884.107	1626.4	1.598
303.15 K, x1 = 0.0424	824.641	1367.8	9.008
303.15 K, x1 = 0.1063	827.029	1374.7	8.713
303.15 K, x1 = 0.1512	828.635	1380.3	8.442
303.15 K, x1 = 0.1995	830.31	1386.1	8.104
303.15 K, x1 = 0.2511	832.075	1392.1	7.658
303.15 K, x1 = 0.2957	833.56	1397.5	7.229
303.15 K, x1 = 0.3961	836.868	1409.8	6.168
303.15 K, x1 = 0.4929	840.345	1423.5	5.062
303.15 K, x1 = 0.609	845.37	1444.5	3.892
303.15 K, x1 = 0.6962	850.353	1466.5	3.107
303.15 K, x1 = 0.7975	858.212	1501.6	2.343
303.15 K, x1 = 0.855	864.125	1529.5	1.985
303.15 K, x1 = 0.9054	870.631	1560.8	1.66
303.15 K, x1 = 0.9591	879.506	1604.9	1.403
308.15 K, x1 = 0.0424	821.178	1350.9	7.295
308.15 K, x1 = 0.1063	823.508	1358	7.087
308.15 K, x1 = 0.1512	825.064	1363.4	6.852
308.15 K, x1 = 0.1995	826.684	1369.1	6.563
308.15 K, x1 = 0.2511	828.392	1375	6.202
308.15 K, x1 = 0.2957	829.829	1380.3	5.881
308.15 K, x1 = 0.3961	833.045	1392.3	5.028
308.15 K, x1 = 0.4929	836.429	1405.6	4.23
308.15 K, x1 = 0.609	841.323	1426.1	3.288
308.15 K, x1 = 0.6962	846.189	1447.5	2.661
308.15 K, x1 = 0.7975	853.898	1481.9	2.032
308.15 K, x1 = 0.855	859.714	1509.4	1.708
308.15 K, x1 = 0.9054	866.124	1540.1	1.485
308.15 K, x1 = 0.9591	874.895	1583.6	1.238
313.15 K, x1 = 0.0424	817.698	1334.2	–
313.15 K, x1 = 0.1063	819.969	1341.6	–
313.15 K, x1 = 0.1512	821.476	1346.8	–
313.15 K, x1 = 0.1995	823.045	1352.3	–
313.15 K, x1 = 0.2511	824.7	1358.1	–
313.15 K, x1 = 0.2957	826.089	1363.2	–
313.15 K, x1 = 0.3961	829.21	1375	–
313.15 K, x1 = 0.4929	832.502	1387.9	–
313.15 K, x1 = 0.609	837.271	1407.9	–
313.15 K, x1 = 0.6962	842.017	1428.6	–
313.15 K, x1 = 0.7975	849.57	1462.5	–
313.15 K, x1 = 0.855	855.287	1489.4	–
313.15 K, x1 = 0.9054	861.605	1519.8	–
313.15 K, x1 = 0.9591	870.264	1562.4	–

NCCN [ethane-1,2-diamine] + CCCCCCCCO
Details	mass density [kg/m3]	speed of sound [m/s]	viscosity [mPa·s]
293.15 K, x1 = 0.0595	828.135	1373.2	–
293.15 K, x1 = 0.1021	830.247	1379.6	–
293.15 K, x1 = 0.143	832.248	1386.6	–
293.15 K, x1 = 0.2012	835.047	1396.5	–
293.15 K, x1 = 0.2633	838.043	1407.3	–
293.15 K, x1 = 0.3122	839.349	1412.6	–
293.15 K, x1 = 0.4113	844.656	1433.8	–
293.15 K, x1 = 0.4919	848.413	1450.2	–
293.15 K, x1 = 0.5973	854.134	1475.6	–
293.15 K, x1 = 0.7019	861.054	1508.3	–
293.15 K, x1 = 0.7938	868.882	1546.3	–
293.15 K, x1 = 0.8436	874.136	1573.2	–
293.15 K, x1 = 0.8941	881.269	1609.4	–
293.15 K, x1 = 0.9546	889.526	1651.7	–
298.15 K, x1 = 0.0595	824.621	1356.2	–
298.15 K, x1 = 0.0596	–	–	6.934
298.15 K, x1 = 0.1021	826.683	1362.6	6.834
298.15 K, x1 = 0.143	828.632	1369.4	6.713
298.15 K, x1 = 0.2012	831.36	1379.3	6.457
298.15 K, x1 = 0.2633	834.276	1389.9	6.099
298.15 K, x1 = 0.3122	835.547	1397.8	5.734
298.15 K, x1 = 0.4113	840.743	1415.9	4.957
298.15 K, x1 = 0.4919	844.426	1432	4.251
298.15 K, x1 = 0.5973	850.038	1457.1	3.406
298.15 K, x1 = 0.7019	856.833	1489	2.707
298.15 K, x1 = 0.7938	864.539	1526.5	2.214
298.15 K, x1 = 0.8436	869.72	1551.8	1.985
298.15 K, x1 = 0.8941	876.764	1582.4	1.751
298.15 K, x1 = 0.9546	884.925	1627.9	1.54
303.15 K, x1 = 0.0595	–	1338.9	–
303.15 K, x1 = 0.0596	–	–	5.792
303.15 K, x1 = 0.1021	–	1345.7	5.694
303.15 K, x1 = 0.143	–	1352.5	5.569
303.15 K, x1 = 0.2012	–	1362.3	5.331
303.15 K, x1 = 0.2633	–	1372.1	5.041
303.15 K, x1 = 0.3122	–	1379.9	4.75
303.15 K, x1 = 0.4113	–	1398.3	4.144
303.15 K, x1 = 0.4919	–	1414	3.595
303.15 K, x1 = 0.5973	–	1438.7	2.917
303.15 K, x1 = 0.7019	–	1469.9	2.395
303.15 K, x1 = 0.7938	–	1506.3	1.956
303.15 K, x1 = 0.8436	–	1530.5	1.748
303.15 K, x1 = 0.8941	–	1559.9	1.532
303.15 K, x1 = 0.9546	–	1604.9	1.34
308.15 K, x1 = 0.0595	817.544	1322.8	–
308.15 K, x1 = 0.0596	–	–	4.848
308.15 K, x1 = 0.1021	819.514	1329	4.757
308.15 K, x1 = 0.143	821.37	1335.8	4.662
308.15 K, x1 = 0.2012	823.957	1345.5	4.461
308.15 K, x1 = 0.2633	826.723	1355.7	4.211
308.15 K, x1 = 0.3122	827.934	1360.7	3.975
308.15 K, x1 = 0.4113	832.902	1380.8	3.497
308.15 K, x1 = 0.4919	836.434	1396.4	3.054
308.15 K, x1 = 0.5973	841.825	1420.5	2.515
308.15 K, x1 = 0.7019	848.372	1451.2	2.031
308.15 K, x1 = 0.7938	855.829	1487.3	1.669
308.15 K, x1 = 0.8436	860.863	1512.4	1.5
308.15 K, x1 = 0.8941	867.723	1546.7	1.342
308.15 K, x1 = 0.9546	875.69	1586.8	1.2
313.15 K, x1 = 0.0595	813.972	1306.6	–
313.15 K, x1 = 0.1021	815.903	1313.3	–
313.15 K, x1 = 0.143	817.713	1319.7	–
313.15 K, x1 = 0.2012	820.239	1329	–
313.15 K, x1 = 0.2633	822.931	1339.1	–
313.15 K, x1 = 0.3122	824.111	1343.9	–
313.15 K, x1 = 0.4113	828.963	1363.5	–
313.15 K, x1 = 0.4919	832.42	1378.9	–
313.15 K, x1 = 0.5973	837.701	1402.6	–
313.15 K, x1 = 0.7019	844.123	1432.8	–
313.15 K, x1 = 0.7938	851.455	1468.2	–
313.15 K, x1 = 0.8436	856.411	1492.4	–
313.15 K, x1 = 0.8941	863.18	1526.1	–
313.15 K, x1 = 0.9546	871.049	1565.6	–
